Source: US6432938B1, “19-nor-cholane steroids as neurochemical initators of change in human hypothalamic function” (Pherin Corporation, priority 1996, dated 2002)

Experiments:
[1] = test system: vomeronasal organ (VNO); assay: Electrovomerogram (EVG) after airborne delivery of substance to the vomeronasal organ; assay type: in vivo, human; details: 2 second pulses to VNO, diluted in propylene glycol, number in cell = compound with effect
Excerpt: The stimulation and recording system consists of a “multifunctional miniprobe” described elsewhere (Monti-Bloch, L. and Grosser, B. l. (1991) “Effect of putative pheromones on the electrical activity of the human vomeronasal organ and olfactory epithelium,” J. Steroid Biochem. Molec. Bio. 39:573582). The recording electrode is a 0.3 mm silver ball attached to a small (0.1 mm) silver wire insulated with Teflon© the surface of the electrode is first treated to produce a silver chloride interface, and is then covered with gelatin It is positioned within a small caliber Teflon© catheter (dia=5 mm) such that the tip of the electrode protrudes approximately 2 mm. The Teflon© catheter is 10 cm in length and constitutes the terminal extension for a multichannel delivery system which delivers a continuous air stream carrying discreet pulses of chemosensory stimuli. The air stream first passes into a small chamber and is bubbled through a solution containing either a vomeropherin or an olfactant in a diluent or the diluent alone. A solenoid is used to rapidly redirect the air stream from the chamber to a route which bypasses the chamber. This creates a discreet pulse of stimulant in the air stream. A second, outer Teflon© tube with a diameter of 2 mm surrounds the catheter-electrode assemblage, and its central end is connected to an aspirator that provides continuous suction of 3 ml/s. This concentric arrangement of the outer suction tube allows the emitted chemosensory stimuli to be localized to an area we call a “minifield” (approx. dia=1 mm), and it avoids diffusion of substances either to the area outside the intended stimulation site or into the respiratory system. The entire stimulating and recording assemblage may be positioned either on the neurosensory epithelium within the VNo, or on the surface of the olfactory or respiratory epithelium.
Electro-vomeronasogram (EVG): Recordings are carried out in a quiet room with the subject supine; the multi-functional miniprobe is initially stabilized within the nasal cavity using a nasal retractor placed in the vestibule. Reference and ground electrodes consist of silver discs (8 mm), both of which are positioned on the glabella.
The entrance to the VNO, or vomeronasal pit, is identified by first dilating the nasal aperture and vestibule. A 6×magnifying binocular loupe with halogen illumination is then used to introduce the tip of the Teflon© catheter and recording electrode assemblage into the VNo opening where it is stabilized at an approximate depth of 1 mm within the vomeronasal passage. Optimal placement of the recording electrode is signaled after testing for an adequate depolarization in response to a test substance.
Electrical signals from the recording electrode are fed to a DC amplifier after which they are digitized, computer monitored, and stored. The peak-to-peak amplitude of the signals is measured, and the area under the depolarization wave is integrated, while continuously monitoring the signal both on the computer screen and on a digital oscilloscope. Artifacts produced by respiratory movements are deleted by training the subjects to practice mouth breathing with velopharyngeal closure. Samples of vomeropherins in concentration of 25-800 fmoles are delivered in the continuous air stream for durations from 300 milliseconds to 1 second. Usually, intervals of 3 to 5 minutes separated each series of short test pulses. All components of the lines carrying the test stimuli are made of Teflon©, glass or stainless steel and are carefully cleaned and sterilized before each use. Activity was recorded using standard electroencephalographic (EEG) electrodes placed at positions Cz-Al and Tz-Al of the international […] system; the ground electrode was placed on the mastoid process. Skin temperature (ST) was recorded by a small (1.0 mm) thermistor probe placed in the right ear lobe. Respiratory frequency (RF) was measured with an adjustable strain gauge placed around the lower thorax. […]

[2] = test system: vomeronasal organ (VNO); assay: Reflex/autonomic responses (RF, CF, BT, EMG, EEG) to stimulation of the VNO with airborne substance; assay type: in vivo, human; details: for BT (body temperature): compound found to have an effect / EEG-T (electroencephalogram from temporal region): compound found to have an effect / RF (respiratory frequency): compound found to have an effect / EEG-V (electroencephalogram from vertex): compound found to have an effect / EMG (electromyogram): compound found to have an effect / CF (cardiac frequency): compound found to have an effect: 2 second pulses to VNO, number in cell = compound with effect; for gender dimorphic effects: males versus females, all recorded parameters
Method: Electrical signals from the recording electrode are fed to a DC amplifier after which they are digitized, computer monitored, and stored. The peak-to-peak amplitude of the signals is measured, and the area under the depolarization wave is integrated, while continuously monitoring the signal both on the computer screen and on a digital oscilloscope. Artifacts produced by respiratory movements are deleted by training the subjects to practice mouth breathing with velopharyngeal closure. Samples of vomeropherins in concentration of 25-800 fmoles are delivered in the continuous air stream for durations from 300 milliseconds to 1 second. Usually, intervals of 3 to 5 minutes separated each series of short test pulses. All components of the lines carrying the test stimuli are made of Teflon©, glass or stainless steel and are carefully cleaned and sterilized before each use. Activity was recorded using standard electroencephalographic (EEG) electrodes placed at positions Cz-Al and Tz-Al of the international […] system; the ground electrode was placed on the mastoid process. Skin temperature (ST) was recorded by a small (1.0 mm) thermistor probe placed in the right ear lobe. Respiratory frequency (RF) was measured with an adjustable strain gauge placed around the lower thorax. All electrical signals were DC amplified, digitized (MP-100, Biopac systems) and continuously monitored utilizing a computer.
Studies were conducted to determine the central nervous system (CNS) reflex responses to vomeropherin stimulation of the VNO. The sexually dimorphic local responses induced by vomeropherins were sometimes mirrored in the autonomic response of male & female subjects.
Fourteen different substances were tested against a control. All substances were diluted in propylene glycol, in 2 ml glass bottles coded with numbers. The solvent (propylene glycol) was used as control.
The airborne substances were delivered to the vomeronasal organ (VNO) in 2 second pulses, using a miniprobe. Several parameters were recorded Electrovomerogram (EVG), respiratory frequency (RF), cardiac frequency (ECG), electrodermal activity (EDA), body temperature (BT), electromyogram (EMG), and electroencephalogram from vertex (EEG-V) and temporal region (EEG-T).
A summary of the results is shown in Table I. Each number indicates the compound found to have an effect in females or in males, on the parameter indicated in the upper row of the table. (For the equivalence of each number to the corresponding compound in males, and in females, see the compound numbers).

Compound | EVG (electrovomerogram): compound found to have an effect ([1]; males (M)) | BT (body temperature): compound found to have an effect ([2]; males (M)) | EVG (electrovomerogram): compound found to have an effect ([1]; females (F)) | EEG-T (electroencephalogram from temporal region): compound found to have an effect ([2]; females (F)) | CF (cardiac frequency): compound found to have an effect ([2]; females (F)) | further results
CCCC=C1CCC2C3CCc4cc(O)ccc4C3=CCC12C (stereo not drawn) [Compound 1, 19,21-BISNORCHOLA-1,3,5(10),9(11),17(20)-PENTAEN-3-OL] | 1 | 1 | – | – | – | –
CCCCC1=CC[C@H]2[C@@H]3CCC4=C(CC[C@H](O)C4)[C@H]3CC[C@]12C [Compound 2, 19,21-BISNORCHOLA-5(10),16-DIEN-3beta-OL] | 2 | 2 | 2 | 2 | – | RF (respiratory frequency): compound found to have an effect ([2]; males (M)): 2; gender dimorphic effects [2]: gender specific
CCCC=C1CC[C@H]2[C@@H]3C=Cc4cc(O)ccc4[C@H]3CC[C@]12C [Compound 3, 19,21-BISNORCHOLA-1,3,5(10),6,17(20)-PENTAEN-3-OL] | 3 | 3 | 3 | – | – | EEG-V (electroencephalogram from vertex): compound found to have an effect ([2]; females (F)): 3
CCCCC1=CC[C@H]2[C@@H]3CCC4=CC(=O)CC[C@]4(O)[C@H]3CC[C@]12C [Compound 4, 10beta-HYDROXY-19,21-BISNORCHOLA-4,16-DIEN-3-ONE] | – | 4 | – | – | – | RF (respiratory frequency): compound found to have an effect ([2]; females (F)): 4; EMG (electromyogram): compound found to have an effect ([2]; males (M)): 4
CCCC=C1CCC2C3CCC4=CC(O)CCC4C3CCC12C (stereo not drawn) [Compound 5, 19,21-BISNORCHOLA-4,17(20)-DIEN-3beta-OL] | – | – | 5 | – | – | RF (respiratory frequency): compound found to have an effect ([2]; females (F)): 5
CC(O)CO (stereo not drawn) [Compound 6, PROPYLENE GLYCOL] | – | – | 6 | 6 | – | –
CCCC=C1CC[C@H]2c3ccc4cc(O)ccc4c3CC[C@]12C [Compound 7, 19,21-BISNORCHOLA-1,3,5,7,9,17(20)-HEXAEN-3-OL] | 7 | 7 | 7 | – | – | EEG-T (electroencephalogram from temporal region): compound found to have an effect ([2]; males (M)): 7
C=C(CCC)[C@H]1CC[C@H]2[C@@H]3CCc4cc(O)ccc4[C@H]3CC[C@]12C [Compound 8, 19-NORCHOLA-1,3,5(10),20-TETRAEN-3-OL] | – | – | – | – | 8 | EMG (electromyogram): compound found to have an effect ([2]; females (F)): 8; EEG-V (electroencephalogram from vertex): compound found to have an effect ([2]; males (M)): 8
CCCC=C1CCC2C3=CCc4cc(O)ccc4C3CCC12C (stereo not drawn) [Compound 9, 19,21-BISNORCHOLA-1,3,5(10),7,17(20)-PENTAEN-3-OL] | – | – | – | – | 9 | –
CCCCC1=CC[C@H]2[C@@H]3CCC4=C(CC[C@@H](O)C4)[C@H]3CC[C@]12C [Compound 10, 19,21-BISNORCHOLA-5(10),16-DIEN-3alpha-OL] | – | – | – | 10 | 10 | EEG-T (electroencephalogram from temporal region): compound found to have an effect ([2]; males (M)): 10; EEG-V (electroencephalogram from vertex): compound found to have an effect ([2]; males (M)): 10; gender dimorphic effects [2]: gender specific
CCCCC1=CC[C@H]2[C@@H]3CCc4cc(OC)ccc4[C@H]3CC[C@]12C [Compound 11, 3-METHOXY-19,21-BISNORCHOLA-1,3,5(10),16-TETRAENE] | – | – | – | 11 | 11 | EEG-V (electroencephalogram from vertex): compound found to have an effect ([2]; females (F)): 11; CF (cardiac frequency): compound found to have an effect ([2]; males (M)): 11; EEG-T (electroencephalogram from temporal region): compound found to have an effect ([2]; males (M)): 11; EEG-V (electroencephalogram from vertex): compound found to have an effect ([2]; males (M)): 11
CCCCC1=CCC2C3CCC4=C(CCC(=O)C4)C3CCC12C (stereo not drawn) [Compound 12, 19,21-bisnorchola-5(10),16-dien-3-one] | – | – | – | – | – | CF (cardiac frequency): compound found to have an effect ([2]; males (M)): 12
